For this experiment, the system named is Pfeiffer cell line (diffuse large B cell lymphoma). Briefly: Example B2: Pfeiffer cell proliferation assay. In kind it is cell-based. Conditions: Pfeiffer cells, [3H]-thymidine incorporation. On the procedure: Pfeiffer cell line (diffuse large B cell lymphoma) are purchased from ATCC (Manassas, Va.) and maintained in the culture medium recommended (RPMI and 10% FBS). To measure the anti-proliferation activity of the compounds, the Pfeiffer cells are plated with the culture medium (2×10^3 cells/well/per 200 μl) into 96-well ultra-low binding plates (Corning, Corning, N.Y.), in the presence or absence of a concentration range of test compounds. After 3-4 days, [^3H]-thymidine (1 μCi/well) (PerkinElmer, Boston, Mass.) in PBS is then added to the cell culture for an additional 12 hours before the incorporated radioactivity is separated by filtration with water through GF/B filters (Packard Bioscience, Meridenj, Conn.) and measured by liquid scintillation counting with a TopCount (Packard Bioscience).
For orientation: Dividing cells build labelled thymidine or BrdU into new DNA.

Each structure is given as a SMILES string. Where a name gives a salt, the structure may show the parent alone. Some results are limits rather than exact numbers.

By IC50 is commonly meant the concentration needed to halve the response being measured. Low values mean greater potency in that assay, high ones weaker potency in that assay.

For `COc1c(C(C)n2nc(C)c3c(N)ncnc32)cc(Cl)c(C)c1C1CN(CC(N)=O)C1` (single isomer, unassigned) [Example 111, 2-(3-{3-[1-(4-Amino-3-methyl-1H-pyrazolo[3,4-d]pyrimidin-1-yl)ethyl]-5-chloro-2-methoxy-6-methylphenyl}azetidin-1-yl)acetamide], the IC50 (Homo sapiens, Pfeiffer) is under 10 nM.

`COc1c(C(C)n2nc(C)c3c(N)ncnc32)cc(Cl)c(C)c1C1CN(C(=O)[C@@H](C)O)C1` (single isomer, unassigned) [Example 121, trifluoroacetate] came in with a concentration for half-maximal inhibition (IC50) (Homo sapiens, Pfeiffer) of 10 to 50 nM.

`CCOc1c(C(C)n2nc(C)c3c(N)ncnc32)cc(Cl)c(F)c1C1CN(CCO)C1` (racemic) [Example 144, 2-(3-{3-[1-(4-Amino-3-methyl-1H-pyrazolo[3,4-d]pyrimidin-1-yl)ethyl]-5-chloro-2-ethoxy-6-fluorophenyl}azetidin-1-yl)ethanol] had a half-maximal inhibitory concentration (IC50) (Homo sapiens, Pfeiffer) of under 10 nM.

Take `CCOc1c(C(C)n2nc(C)c3c(N)ncnc32)cc(Cl)c(F)c1C1CN(C[C@H](C)O)C1` (stereo partly drawn) [Example 149, (2S)-1-(3-{3-[1-(4-Amino-3-methyl-1H-pyrazolo[3,4-d]pyrimidin-1-yl)ethyl]-5-chloro-2-ethoxy-6-fluorophenyl}azetidin-1-yl)propan-2-ol]: the 50% inhibitory concentration (IC50) (Homo sapiens, Pfeiffer) was under 10 nM.

The molecule `COc1c(C(C)n2nc(C)c3c(N)ncnc32)cc(Cl)c(C)c1-c1ccnc(C(=O)N(C)C)c1` (centres unmarked) [Example 200, 4-(3-(1-(4-Amino-3-methyl-1H-pyrazolo[3,4-d]pyrimidin-1-yl)ethyl)-5-chloro-2-methoxy-6-methylphenyl)-N,N-dimethylpicolinamide bis(2,2,2-trifluoroacetate)] registered a half-inhibitory concentration (IC50) (Homo sapiens, Pfeiffer) of under 10 nM.

`CCOc1c(C(C)n2nc(C)c3c(N)ncnc32)cc(Cl)c(C)c1-c1cncc(S(C)(=O)=O)c1` (single isomer, unassigned) [Example 198] displayed an IC50 (Homo sapiens, Pfeiffer) of under 10 nM.

Take `COc1c(C(C)n2nc(C(F)F)c3c(N)ncnc32)cc(Cl)c(F)c1C1CN(C)C1` (racemic) [Example 75, 1-{1-[5-Chloro-4-fluoro-2-methoxy-3-(1-methylazetidin-3-yl)phenyl]ethyl}-3-(difluoromethyl)-1H-pyrazolo[3,4-d]pyrimidin-4-amine]: the IC50 (Homo sapiens, Pfeiffer) was under 10 nM.

The molecule `CCOc1c(C(C)n2nc(C(F)F)c3c(N)ncnc32)cc(Cl)c(F)c1C1CN(CCO)C1` (racemic) [Example 152, 2-[3-(3-{1-[4-Amino-3-(difluoromethyl)-1H-pyrazolo[3,4-d]pyrimidin-1-yl]ethyl}-5-chloro-2-ethoxy-6-fluorophenyl)azetidin-1-yl]ethanol] gave an IC50 (Homo sapiens, Pfeiffer) of under 10 nM.

On to `CCOc1c(C(C)n2nc(C)c3c(N)ncnc32)cc(Cl)c(C)c1-c1ccc(C(=O)N(C)C)nc1` (centres unmarked) [Example 195, 5-(3-(1-(4-Amino-3-methyl-1H-pyrazolo[3,4-d]pyrimidin-1-yl)ethyl)-5-chloro-2-ethoxy-6-methylphenyl)-N,N-dimethylpicolinamide bis(2,2,2-trifluoroacetate)], for which the IC50 (Homo sapiens, Pfeiffer) was under 10 nM.

Take `COc1c(C(C)n2nc(C)c3c(N)ncnc32)cc(Cl)c(C)c1-c1cncc(C(=O)N2CC(C#N)C2)c1` (single isomer, unassigned) [Example 177, 1-[(5-{3-[1-(4-amino-3-methyl-1H-pyrazolo[3,4-d]pyrimidin-1-yl)ethyl]-5-chloro-2-methoxy-6-methylphenyl}pyridin-3-yl)carbonyl]azetidine-3-carbonitrile]: the IC50 (Homo sapiens, Pfeiffer) was under 10 nM.

`CCOc1c(C(C)n2nc(C)c3c(N)ncnc32)cc(Cl)c(F)c1C1CNC(=O)C1` (single isomer, unassigned) [Example 347, 4-{3-[1-(4-amino-3-methyl-1H-pyrazolo[3,4-d]pyrimidin-1-yl)ethyl]-5-chloro-2-ethoxy-6-fluorophenyl}pyrrolidin-2-one] displayed an IC50 of under 10 nM.

The values above are taken from patent US10092570B2 (Incyte Corporation, priority 2011, dated 2018).
